ChEMBL document CHEMBL3045715, “Fungicidal Properties of N-(3, 5-Dichlorophenyl)-N-methoxyformamidine and Computer Studies of Its Active Structures” (J Pestic Sci, 1991)
Active and inactive are the calls of the source. The rule behind the calls is not given here.

Key:
Botrytis cinerea [1] = assay: Antifungal activity against Botryotinia fuckeliana Bc-44 in kidney bean leaves assessed as reduction of disease diameter lesions at 200 ppm after 4 days; assay type: functional; parameters: scale not given: the % may be the effect or the level left
Botrytis cinerea [2] = assay: Antifungal activity against Botryotinia fuckeliana Bc-44 in kidney bean leaves assessed as reduction of disease diameter lesions at 50 ppm after 4 days; assay type: functional; parameters: scale not given: the % may be the effect or the level left
Botrytis cinerea [3] = assay: Antifungal activity against benzimidazole-sensitive Botryotinia fuckeliana Bc-9 assessed as inhibition of hyphae extension at 1 ug/ml after 48 hr; assay type: functional, organism-based
Botrytis cinerea [4] = assay: Antifungal activity against benzimidazole-sensitive Botryotinia fuckeliana Bc-9 assessed as distorted and swollen germ tube at 1 ug/ml after 48 hr; assay type: functional, organism-based
Botrytis cinerea [5] = assay: Resistant ratio of EC50 for benzimidazole-sensitive Botryotinia fuckeliana Bc-9 to EC50 for benzimidazole-resistant Botryotinia fuckeliana Bc-44; assay type: functional
Botrytis cinerea [6] = assay: Antifungal activity against benzimidazole-sensitive Botryotinia fuckeliana Bc-9 assessed as inhibition of radial mycelial growth after 48 hr; assay type: functional, organism-based
Botrytis cinerea [7] = assay: Antifungal activity against benzimidazole-resistant Botryotinia fuckeliana Bc-44 assessed as inhibition of radial mycelial growth after 48 hr; assay type: functional, organism-based
Botrytis cinerea [8] = assay: Antifungal activity against benzimidazole-sensitive Botryotinia fuckeliana Bc-9 assessed as inhibition of hyphae extension at 15 ug/ml after 48 hr; assay type: functional, organism-based
Botrytis cinerea [9] = assay: Antifungal activity against benzimidazole-sensitive Botryotinia fuckeliana Bc-9 assessed as distorted and swollen germ tube at 15 ug/ml after 48 hr; assay type: functional, organism-based
Botrytis cinerea [10] = assay: Antifungal activity against benzimidazole-resistant Botryotinia fuckeliana Bc-44 assessed as inhibition of hyphae extension at 15 ug/ml after 48 hr; assay type: functional, organism-based
Botrytis cinerea [11] = assay: Antifungal activity against benzimidazole-resistant Botryotinia fuckeliana Bc-44 assessed as distorted and swollen germ tube at 15 ug/ml after 48 hr; assay type: functional, organism-based
Botrytis cinerea [12] = assay: Antifungal activity against benzimidazole-resistant Botryotinia fuckeliana Bc-44 assessed as inhibition of conidia germination at 15 ug/ml after 48 hr; assay type: functional, organism-based

Row | SMILES | Activity (Botrytis cinerea [1]) [%] | Activity (Botrytis cinerea [2]) [%] | other results
1 | CCONC(=S)Nc1cc(Cl)cc(Cl)c1 | <25 | <25 | 
2 | COC(=O)Nc1cc(Cl)cc(Cl)c1 | 100 | 90 | inhibition (Botrytis cinerea [3]): inactive; inhibition (Botrytis cinerea [4]): inactive; Ratio EC50 (Botrytis cinerea [5]): 25; EC50 (Botrytis cinerea [6]): 5 ppm; EC50 (Botrytis cinerea [7]): 0.2 ppm
3 | N#CNc1cc(Cl)cc(Cl)c1 | <25 | <25 | 
4 | CCONC(=O)Nc1cc(Cl)cc(Cl)c1 | <25 | <25 | 
5 | CNC(=O)Oc1nc2ccccc2[nH]1 |  |  | Ratio EC50 (Botrytis cinerea [5]): 0.0005; EC50 (Botrytis cinerea [6]): 0.05 ppm; EC50 (Botrytis cinerea [7]): > 100 ppm
6 | CCO/N=C(/Nc1cc(Cl)cc(Cl)c1)SC | 26 | <25 | 
7 | CCO/N=C/Nc1cc(Cl)cc(Cl)c1 | 100 | 90 | 
8 | CO/N=C/Nc1cc(Cl)cc(Cl)c1 | 100 | 90 | inhibition (Botrytis cinerea [8]): inactive; inhibition (Botrytis cinerea [9]): inactive; inhibition (Botrytis cinerea [10]): Active; inhibition (Botrytis cinerea [11]): Active; Activity (Botrytis cinerea [12]): inactive; Ratio EC50 (Botrytis cinerea [5]): 10; EC50 (Botrytis cinerea [6]): 30 ppm; EC50 (Botrytis cinerea [7]): 3 ppm
9 | Clc1cc(Cl)cc(Nc2nccs2)c1 | 26 | <25 | 
10 | CCO/N=C(\C)Nc1cc(Cl)cc(Cl)c1 | 100 | 50 | 
11 | CN(C#N)c1cc(Cl)cc(Cl)c1 | 90 | 26 | 
